In patent publication US20230357179A1, “RAF KINASE INHIBITORS AND METHODS OF USE THEREOF” (Deciphera Pharmaceuticals, LLC, priority 2021, published 2023):

Tested on: WM3928 cells
Assay: WM3928 cell proliferation assay (2), resazurin, 384-well
Assay type: cell-based
Details: inhibition of cell proliferation, 67-72 hours
Method: WM3928 Cell Proliferation Assay (2)
WM3928 cells (#WM3928-01-0001) are obtained from Rockland Immunochemicals Inc (Gilbertsville, PA). Briefly, cells were grown in MCDB 153 medium (Sigma, #M7403, St. Louis, MO) supplemented with 20% Leibovitz's L-15 (ThermoFisher #11415-064, Waltham, MA), 2% heat inactivated fetal bovine serum (ThermoFisher, #A3840001, Waltham, MA), 5 μg/mL Insulin (Bovine Pancreas) (Sigma, #I0516, St. Louis, MO), 1.68 mM Calcium Chloride (Sigma, #C-34006, St. Louis, MO) and 1% Penicillin/Streptomycin/L-Glutamine (ThermoFisher #10378016, Waltham, MA) at 37° C., 5% CO2, and 95% humidity. Cells are expanded until reaching 70-95% confluency at which point they are sub-cultured or harvested for assay use. Using the Beckman Coulter Echo 650, a serial dilution of test compound is dispensed into a 384-well black clear bottom plate in triplicate. Seven hundred fifty cells are added per well in 50 μL complete growth medium in the 384-well plate. Plates are incubated for 67-72 hours at 37° C., 5% CO2, and 95% humidity. At the end of the incubation, 10 μL of a 440 μM solution of resazurin (Sigma, #199303, St. Louis, MO) in PBS is added to each well of the plate and plates are incubated for an additional 3-6 hours at 37° C., 5% CO2, and 95% humidity. Plates are read on a Synergy2 or equivalent reader (Biotek, Winooski VT) using an excitation of 540 nm and an emission of 600 nm. Data is analyzed using Prism software (GraphPad, San Diego, CA) to calculate IC50 values.

Compound	IC50 [nM]
Cc1ccc(NC(=O)N2CC[C@H](C(F)(F)F)C2)cc1-c1cncc(-c2cc(NC(=O)C3CC3)ncn2)c1 [Example 195]	≤ 100
Cc1cc(F)c(NC(=O)N2CC[C@H](C(F)(F)F)C2)cc1-c1cncc(-c2cc(NC(=O)C3CC3)ncn2)c1 [Example 216]	≤ 100
